Earlier results as cited in patent US20060199791A1, “Anti-microbial composition comprising a metal ion chelating agent” (AQ+ PLC, priority 2001, published 2006).

Test system: long term sinus infection
Settings: patient history, infection for some 14 to 15 years

Row | Structure (SMILES) | response of the sinus infection to earlier antibiotic treatment
1 | O=C(O)c1cn(C2CC2)c2cc(N3CCNCC3)c(F)cc2c1=O [Cipro] | resistant to treatment
2 | CC1(C)S[C@@H]2[C@H](NC(=O)[C@H](N)c3ccc(O)cc3)C(=O)N2[C@H]1C(=O)O [Trimox] | resistant to treatment
3 | CC1(C)S[C@@H]2[C@H](NC(=O)COc3ccccc3)C(=O)N2[C@H]1C(=O)O [Veetids] | resistant to treatment
4 | CCC[C@@H]1C[C@@H](C(=O)N[C@@H]([C@H]2O[C@H](SC)[C@H](O)[C@@H](O)[C@H]2O)[C@H](C)Cl)N(C)C1 [Clindramycin] | resistant to treatment
